Laboratory results as given in patent US20240158750A1, “STROMA-FREE NK CELL DIFFERENTIATION FROM HUMAN PLURIPOTENT STEM CELLS” (The Children's Medical Center Corporation, priority 2021, published 2024).

What was measured:
G9a (EHMT2) = assay: Stroma-free NK cell differentiation with CRISPRi G9a (EHMT2) knockdown; type: cell-based, human; conditions: G9a knockdown by Dox induced CRISPRi for 14 days, representative flow cytometry plot
Source text: FIGS. 5A-5C are a series of schematics and graphs showing that G9a (also referred to herein as EHMT2) repression promoted NK cell differentiation. FIG. 5A is a schematic showing the experimental design. FIG. 5B is representative flow cytometry results showing the production of CD5-CD56+NK cells from control iPSCs or iPSCs with EHMT2 (G9a) knockdown by doxycycline (Dox) induced CRISPRi (see, e.g., SEQ ID NO: 50) for 14 days. […] FIG. 5C is a dot pot showing the frequencies of CD5-CD56+NK cells derived from control iPSCs or iPSCs with EHMT2 (G9a) knockdown (n=3, * P<0.05).
The iPSCs were then differentiated into CD34+HE cells and treated with Dox to induce G9a knockdown. The control or Dox treated cells were then differentiated into CD7+ lymphoid progenitors and eventually CD5-CD56+NK cells using the stroma-free methods described herein (see, e.g., Table 1).

MDA-MB-231 cells = conditions: in MDA-MB-231 cells; cited from earlier work
[1] = tested on: iPS-derived CD34+ hemogenic endothelial cells; assay: Stroma-free differentiation on DLL4-coated plates; type: cell-based, human
Protocol: FIG. 2 is a series of flow cytometry plot showing cells produced from a stroma-free differentiation protocol, which can be used to more specifically generate T or NK cells after 5 weeks. The culture conditions for T cells included: (i) EB-derived CD34^+ hemogenic endothelium (HE) on DLL4 coating (10 μg/ml), and (ii) IL-7 (50 ng/ml), SCF (100 ng/ml), Flt3 (100 ng/ml), and TPO (50 ng/ml, first 2 weeks). For more details concerning the stroma-free T cell differentiation protocol, see, e.g., International PCT publication WO 2021/150919, the content of which is incorporated herein by reference in its entirety. The culture conditions for NK cells included: EB-derived CD34^+ hemogenic endothelium (HE) on DLL4 coating (5 μg/ml), IL7 (10 ng/ml), SCF (50 ng/ml), and Flt3 (50 ng/ml).
Hemogenic CD34^+ endothelial cells were first derived from iPS (Example 2). The iPS-derived CD34^+ hemogenic endothelial cells were cultured on tissue culture plates coated with Notch ligands (e.g., DLL4; e.g., 5 μg/ml or 10 μg/ml in PBS, 3 hours in room temperature) using media containing a cocktail of growth factors (e.g., Flt3, SCF, IL7). […]

[2] = tested on: iPSC-derived CD34+CD45+ HSPCs; assay: ATAC-seq of iPSC-derived CD34+CD45+ HSPCs treated during EHT; type: cell-based, human; conditions: 500 nM or 1 μM during conversion of HE into HSPCs for 5 days, versus DMSO
Protocol: FIGS. 6A-6C are a series of schematics and graphs showing that G9a modulates chromatin accessibility of lymphoid genes. FIG. 6A is a schematic showing the experimental design. FIG. 6B is a heatmap showing assay for transposase-accessible chromatin using sequencing (ATAC-seq) peaks enriched in iPSC-derived CD34+CD45+ HSPCs that were treated with control vehicle (“DMSO”), 500 nM of UNC0224 (“UNC low”), or 1 μM of UNC0224 (“UNC high”) during the conversion of CD34+CD45− HE into CD34+CD45+ HSPCs for 5 days; 5 peaks are shown, labeled K1-K5.
FIGS. 6A-6C show the mechanism by which G9a (EHMT2) regulates lymphoid fate decision in iPSC-derived HSPCs (iPSC-HSPCs). The iPSCs were first differentiated into CD34+ HEs, and the cells were then treated with DMSO or G9a inhibitor UNC0224 during the EHT stage, which allowed the HEs to specify into CD34+CD45+ HSPCs. ATAC-seq analysis was then performed on these iPSC-HSPCs to detect ATAC peaks that indicated accessible chromatin regions (as indicated by higher ATAC-seq scores).

iPSC-derived EHT cells = assay: RNA-seq of G9a-inhibitor treated EHT cells, PANTHER overrepresentation test; type: cell-based, human; conditions: for Client Text Box Input (fold Enrichment): UNC0224 treated vs control EHT cells
Protocol: RNA-seq analysis was performed on the same samples as in FIG. 6A.

[3] = tested on: class I HDAC (e.g., HDAC1, HDAC2, HDAC3); conditions: cited from earlier work

## SEQ ID NO: 50: G9a CRISPRi gRNA: AATGGCCAAAAAGCATGTAG (chemistry not given here)
G9a (EHMT2)
  CD5-CD56+NK cells: 64.7%

## COc1cc2c(NC3CCN(CC4CCCCC4)CC3)nc(N3CCCN(C(C)C)CC3)nc2cc1OCCCN1CCCCC1 [UNC0631]
MDA-MB-231 cells
  IC50: 25 nM

## DLL4: Notch ligand Delta-like-4, coated on tissue culture plates
[1]; higher concentration of DLL4 coating (e.g., 10 μg/ml)
  lineage outcome of differentiation: promotes T cell differentiation
[1]; lower concentration of DLL4 coating (e.g., 5 μg/ml)
  lineage outcome of differentiation: facilitates the generation of CD56^+ NK cells

## COc1cc2c(NC3CCN(C)CC3)nc(N3CCCN(C)CC3)nc2cc1OCCCN(C)C [UNC0224]
[2]
  ATAC-seq peaks upregulated in treated cells: associated with genes that are responsible for lymphoid differentiation/function
iPSC-derived EHT cells; B cell mediated immunity (GO:0019724)
  Client Text Box Input (fold Enrichment): 7.3
iPSC-derived EHT cells; T cell activation (GO:0042110)
  Client Text Box Input (fold Enrichment): 14.53
iPSC-derived EHT cells; T cell differentiation (GO:0030217)
  Client Text Box Input (fold Enrichment): 18.46
iPSC-derived EHT cells; adaptive immune response (GO:0002250)
  Client Text Box Input (fold Enrichment): 6.79
iPSC-derived EHT cells; adaptive immune response based on somatic recombination of immune receptors built from immunoglobulin superfamily domains (GO:0002460)
  Client Text Box Input (fold Enrichment): 7.89
iPSC-derived EHT cells; antigen processing and presentation (GO:0019882)
  Client Text Box Input (fold Enrichment): 29.42
iPSC-derived EHT cells; cell activation (GO:0001775)
  Client Text Box Input (fold Enrichment): 5.69
iPSC-derived EHT cells; cell-cell adhesion (GO:0098609)
  Client Text Box Input (fold Enrichment): 4.83
iPSC-derived EHT cells; cellular component assembly (GO:0022607)
  Client Text Box Input (fold Enrichment): 2.21
iPSC-derived EHT cells; cellular component biogenesis (GO:0044085)
  Client Text Box Input (fold Enrichment): 2.44
iPSC-derived EHT cells; cellular component organization or biogenesis (GO:0071840)
  Client Text Box Input (fold Enrichment): 1.63
iPSC-derived EHT cells; cellular protein-containing complex assembly (GO:0034622)
  Client Text Box Input (fold Enrichment): 4.21
iPSC-derived EHT cells; gene expression (GO:0010467)
  Client Text Box Input (fold Enrichment): 1.58
iPSC-derived EHT cells; immune effector process (GO:0002252)
  Client Text Box Input (fold Enrichment): 6.63
iPSC-derived EHT cells; immune response (GO:0006955)
  Client Text Box Input (fold Enrichment): 2.87
iPSC-derived EHT cells; immune system process (GO:0002376)
  Client Text Box Input (fold Enrichment): 2.61
iPSC-derived EHT cells; immunoglobulin mediated immune response (GO:0016064)
  Client Text Box Input (fold Enrichment): 7.3
iPSC-derived EHT cells; leukocyte activation (GO:0045321)
  Client Text Box Input (fold Enrichment): 6.09
iPSC-derived EHT cells; leukocyte cell-cell adhesion (GO:0007159)
  Client Text Box Input (fold Enrichment): 15.11
iPSC-derived EHT cells; leukocyte mediated immunity (GO:0002443)
  Client Text Box Input (fold Enrichment): 7.27
iPSC-derived EHT cells; lymphocyte activation (GO:0046649)
  Client Text Box Input (fold Enrichment): 6.42
iPSC-derived EHT cells; lymphocyte mediated immunity (GO:0002449)
  Client Text Box Input (fold Enrichment): 7.62
iPSC-derived EHT cells; positive regulation of T cell activation (GO:0050870)
  Client Text Box Input (fold Enrichment): 22.09
iPSC-derived EHT cells; positive regulation of biological process (GO:0048518)
  Client Text Box Input (fold Enrichment): 2.02
iPSC-derived EHT cells; positive regulation of cell activation (GO:0050867)
  Client Text Box Input (fold Enrichment): 6.29
iPSC-derived EHT cells; positive regulation of cell adhesion (GO:0045785)
  Client Text Box Input (fold Enrichment): 17.95
iPSC-derived EHT cells; positive regulation of cell-cell adhesion (GO:0022409)
  Client Text Box Input (fold Enrichment): 21.54
iPSC-derived EHT cells; positive regulation of cellular process (GO:0048522)
  Client Text Box Input (fold Enrichment): 2.11
iPSC-derived EHT cells; positive regulation of immune system process (GO:0002684)
  Client Text Box Input (fold Enrichment): 5.43
iPSC-derived EHT cells; positive regulation of leukocyte activation (GO:0002696)
  Client Text Box Input (fold Enrichment): 6.29
iPSC-derived EHT cells; positive regulation of leukocyte cell-cell adhesion (GO:1903039)
  Client Text Box Input (fold Enrichment): 22.09
iPSC-derived EHT cells; positive regulation of lymphocyte activation (GO:0051251)
  Client Text Box Input (fold Enrichment): 6.53
iPSC-derived EHT cells; production of molecular mediator of immune response (GO:0002440)
  Client Text Box Input (fold Enrichment): 7.58
iPSC-derived EHT cells; protein-containing complex assembly (GO:0065003)
  Client Text Box Input (fold Enrichment): 3.99
iPSC-derived EHT cells; protein-containing complex subunit organization (GO:0043933)
  Client Text Box Input (fold Enrichment): 3.43
iPSC-derived EHT cells; regulation of T cell activation (GO:0050863)
  Client Text Box Input (fold Enrichment): 16.25
iPSC-derived EHT cells; regulation of cell activation (GO:0050865)
  Client Text Box Input (fold Enrichment): 5.42
iPSC-derived EHT cells; regulation of cell adhesion (GO:0030155)
  Client Text Box Input (fold Enrichment): 10.77
iPSC-derived EHT cells; regulation of cell-cell adhesion (GO:0022407)
  Client Text Box Input (fold Enrichment): 15.11
iPSC-derived EHT cells; regulation of immune system process (GO:0002682)
  Client Text Box Input (fold Enrichment): 4.07
iPSC-derived EHT cells; regulation of leukocyte activation (GO:0002694)
  Client Text Box Input (fold Enrichment): 5.49
iPSC-derived EHT cells; regulation of leukocyte cell-cell adhesion (GO:1903037)
  Client Text Box Input (fold Enrichment): 16.89
iPSC-derived EHT cells; regulation of lymphocyte activation (GO:0051249)
  Client Text Box Input (fold Enrichment): 5.82
iPSC-derived EHT cells; treated versus control EHT cells
  RNA-seq gene expression change: upregulation of genes associated with lymphoid development and function

## Cn1cc(/C=C/C(=O)c2cccc(F)c2)cc1/C=C/C(=O)NO [MC1568]
[3]
  inhibition of class I HDAC activity: Class II HDAC (e.g., HDAC4 and HDAC5) inhibitor. Displays no inhibition of class I HDAC activity (e.g., HDAC1, HDAC2, HDAC3).

## COc1cc2c(NC3CCN(C4CCCCC4)CC3)nc(N3CCCN(C(C)C)CC3)nc2cc1OCCCN1CCCCC1 [UNC0646]
MDA-MB-231 cells
  IC50: 26 nM
